# Test results reported in the supplement of paper PMC10307832.
# Tests used:
# Assay in all cases: relative viability (nuclei count vs DMSO), 5 days (fraction); higher = more cells survive
# [1] = compound: CC1=CC(=CC=C1)NC2=NC(=CS2)C3=CC=NC=C3 + COc1cccc2cc(-c3nc([C@H]4CC[C@H](C(=O)O)CC4)n4ncnc(N)c34)[nH]c12 [OSI-027] (partner 0.5 µM)
# Summary of the method: (§1)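 Relative viability equals treated-well nuclei counts divided by vehicle-well nuclei counts. Counts came from 4× images of lung cancer cell lines grown in 1536-well plates for 5 days after pin-tool dosing on the day after seeding. Dosing used one drug alone or a fixed anchor-drug dose plus five library-drug doses (not always all listed) in √10 steps, and values are medians of duplicate plates.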
# Masitinib + Luminespib = compound: Cc1ccc(NC(=O)c2ccc(CN3CCN(C)CC3)cc2)cc1Nc1nc(-c2cccnc2)cs1 [Masitinib] + CCNC(=O)c1noc(-c2cc(C(C)C)c(O)cc2O)c1-c1ccc(CN2CCOCC2)cc1 [Luminespib] (partner 0.01 µM)
# Summary of the method: as §1
# Masitinib + Lapatinib = compound: Cc1ccc(NC(=O)c2ccc(CN3CCN(C)CC3)cc2)cc1Nc1nc(-c2cccnc2)cs1 [Masitinib] + CS(=O)(=O)CCNCc1ccc(-c2ccc3ncnc(Nc4ccc(OCc5cccc(F)c5)c(Cl)c4)c3c2)o1 [Lapatinib] (partner 2 µM)
# Summary of the method: as §1
# Masitinib + AZD7762 = compound: Cc1ccc(NC(=O)c2ccc(CN3CCN(C)CC3)cc2)cc1Nc1nc(-c2cccnc2)cs1 [Masitinib] + NC(=O)Nc1cc(-c2cccc(F)c2)sc1C(=O)N[C@H]1CCCNC1 [AZD7762] (partner 0.2 µM)
# Summary of the method: as §1
Cell Line,relative viability ([1]; first compound 0.08 µM),relative viability ([1]; first compound 0.253 µM),relative viability ([1]; first compound 0.8 µM),relative viability ([1]; first compound 2.53 µM),relative viability ([1]; first compound 8 µM),relative viability (Masitinib + Luminespib; first compound 0.01 µM),relative viability (Masitinib + Luminespib; first compound 0.03162 µM),relative viability (Masitinib + Luminespib; first compound 0.1 µM),relative viability (Masitinib + Luminespib; first compound 0.3162 µM),relative viability (Masitinib + Luminespib; first compound 1 µM),relative viability (Masitinib + Lapatinib; first compound 0.01 µM),relative viability (Masitinib + Lapatinib; first compound 0.03162 µM),relative viability (Masitinib + Lapatinib; first compound 0.1 µM),relative viability (Masitinib + Lapatinib; first compound 0.3162 µM),relative viability (Masitinib + Lapatinib; first compound 1 µM),relative viability (Masitinib + AZD7762; first compound 0.01 µM),relative viability (Masitinib + AZD7762; first compound 0.03162 µM),relative viability (Masitinib + AZD7762; first compound 0.1 µM),relative viability (Masitinib + AZD7762; first compound 0.3162 µM),relative viability (Masitinib + AZD7762; first compound 1 µM)
201T,0.501,0.438,0.522,0.494,0.536,0.821,1.13,0.944,1.07,0.993,0.763,1.01,0.811,0.882,1.03,0.516,0.7,0.528,0.64,0.573
A549,,,,,,,,,,,0.995,0.948,1.05,0.942,0.963,,,,,
A-427,0.378,0.522,0.523,0.397,0.48,,1.1,1.13,0.814,1.18,,1.02,,1.17,1.03,0.775,0.657,0.689,0.744,0.559
ABC-1,0.369,0.427,0.493,0.421,0.319,0.397,0.692,0.743,0.484,0.429,1.54,1.15,1.21,1.37,1.16,0.711,0.901,0.743,0.493,0.801
BEN,0.304,0.281,0.295,0.304,0.322,0.436,,0.631,0.378,0.37,0.774,0.675,0.928,0.54,0.65,0.849,0.64,0.882,0.607,0.77
CAL-12T,0.45,0.546,0.542,0.469,0.528,0.513,0.403,0.363,0.469,0.306,0.612,0.729,0.745,0.592,0.499,0.586,0.639,0.606,0.605,0.498
COR-L23,0.587,0.66,0.555,0.64,0.503,0.598,0.598,0.798,0.931,0.579,0.715,1.2,0.896,1.2,1.17,,,,,
COR-L 105,0.562,0.62,0.561,0.597,0.581,0.758,0.677,0.776,0.686,0.66,0.298,0.379,0.4,0.36,0.312,,,,,
Calu-6,,,,,,,,,,,1.05,1.01,1.25,0.938,1.05,,,,,
ChaGo-K-1,0.43,0.459,0.588,0.394,0.485,0.681,0.48,0.635,0.524,0.569,,,,,,0.928,0.916,0.946,0.823,0.806
EBC-1,,,,,,,,,,,0.191,0.235,0.197,0.196,0.21,,,,,
EKVX,0.538,0.699,0.619,0.628,0.636,,0.997,0.599,0.93,0.786,,0.165,0.198,0.158,0.196,0.783,0.824,0.71,,0.637
EMC-BAC-2,0.356,0.383,0.385,0.375,0.378,1.01,1.06,1.15,1.13,1.16,0.793,0.911,0.837,0.9,0.966,0.862,1.01,1.03,1.05,1.01
EPLC-272H,0.243,0.274,0.258,0.27,0.281,0.27,0.237,0.262,0.195,0.232,0.948,0.898,0.951,0.914,0.827,0.245,0.206,0.211,0.258,0.161
H3255,0.527,0.615,0.726,0.494,0.701,0.586,0.772,0.611,1.02,0.838,,0.268,0.243,0.213,0.248,0.581,0.948,0.764,0.705,0.885
HARA,0.33,0.496,0.328,0.48,0.473,,0.609,0.44,0.682,0.731,0.582,0.78,0.855,0.675,0.719,0.444,0.267,0.216,,0.143
HCC-15,0.533,0.607,0.661,0.595,0.561,0.306,0.389,0.37,0.476,0.141,0.561,0.919,0.677,0.917,0.852,0.794,1.04,1.02,0.422,1.24
HCC-44,0.321,0.374,0.558,0.432,0.348,1.04,1.17,1.08,1.03,1.09,0.911,0.98,1.05,0.856,0.951,0.834,0.99,1.02,0.958,1.04
HCC-78,,0.371,0.392,0.308,0.435,,,,,,0.871,0.62,0.743,0.334,0.625,0.509,0.524,0.71,0.454,0.572
